17 compounds from patent US12404295B2, “(Hetero)aryl-methyl-thio-beta-D-galactopyranoside derivatives” (Idorsia Pharmaceuticals Ltd, priority 2019, dated 2025) can be followed below.

Like-named read-outs stand apart in the source and are kept apart here.

The target of one assay is human Gal-1 (hGal-1) (Homo sapiens (Human), UniProt P09382). Nature of the assay: competitive binding assay: biotinylated hGal-1 binding to microplate-adsorbed asialofetuin (ASF). To be noted: Table 15; read-out: IC50 (Galectin-1 inhibition). As to the method:
Inhibition data of the epimers R and S of selected Examples are also listed.
Evaluation of Compound Inhibitory Activity (IC50)
The inhibitory activity of compounds is determined in competitive binding assays. This spectrophotometric assay measures the binding of biotinylated human Gal-3 (hGal-3) or human Gal-1 (hGal-1), respectively, to a microplate-adsorbed glycoprotein, asialofetuin (ASF) (Proc Natl Acad Sci USA. 2013 Mar. 26; 110(13):5052-7.).
Briefly, compounds are serially diluted in DMSO (working dilutions). ASF-coated 384 well plates are supplemented with 22.8 μL/well of biotinylated hGal-3 or hGal-1 in assay buffer (i.e. 300-1000 ng/mL biotinylated hGal-3 or hGal-1) to which 1.2 μL of compound working dilutions are added and mixed.
Plates are incubated for 3 hours at 4° C., then washed with cold assay buffer (3×50 uL), incubated for 1 hour with 25 μL/well of a streptavidin-peroxidase solution (diluted in assay buffer to 80 ng/mL) at 4° C., followed by further washing steps with assay buffer (3×50 uL). Finally, 25 μL/well of ABTS substrate is added.
The calculated IC50 values may fluctuate depending on the daily assay performance. Fluctuations of this kind are known to those skilled in the art. IC50 values from several measurements are given as mean values.

A further assay deals with human Gal-3 (hGal-3) (Homo sapiens (Human), UniProt P17931). Kind of assay: competitive binding assay: biotinylated hGal-3 binding to microplate-adsorbed asialofetuin (ASF). A digest of the protocol:
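Peroxidase activity developed with ABTS measures the biotinylated hGal-3 remaining on the asialofetuin-coated surface after competition with test compounds. Incubation ran 3 h at 4 °C, followed by 1 h with streptavidin-peroxidase at 80 ng/mL.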

Where [1] appears, read: Table 14, read-out: IC50 (Gal-3 inhibition).
[2] abbreviates: Table 5, read-out: IC50 (Gal-3 inhibition).
The mark [3] stands for this setting: Gal-3 inhibition, binding of biotinylated hGal-3 to ASF, mean values, read-out: IC50.
Where [4] appears, read: Table 11, read-out: IC50 (Gal-3 inhibition).

human Gal-3 (hGal-3), sequence (P17931 whole entry): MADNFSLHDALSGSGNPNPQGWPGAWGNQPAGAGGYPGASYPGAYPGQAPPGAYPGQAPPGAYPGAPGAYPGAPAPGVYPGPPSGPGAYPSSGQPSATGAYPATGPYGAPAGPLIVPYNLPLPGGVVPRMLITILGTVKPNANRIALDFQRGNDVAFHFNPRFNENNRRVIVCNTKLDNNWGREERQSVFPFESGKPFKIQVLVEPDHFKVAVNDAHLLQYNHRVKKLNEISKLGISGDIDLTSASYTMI
human Gal-1 (hGal-1), sequence (P09382 whole entry): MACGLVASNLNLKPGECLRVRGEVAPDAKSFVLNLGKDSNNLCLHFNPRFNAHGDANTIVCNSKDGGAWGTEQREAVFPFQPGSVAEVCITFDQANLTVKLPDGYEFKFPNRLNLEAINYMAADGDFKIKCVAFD

The term IC50 denotes the concentration at which inhibition is half-maximal. Consider `CO[C@@H]1[C@@H](n2cc(-c3ccc(C)c(F)c3F)nn2)[C@@H](O)[C@@H](CO)O[C@H]1SC(c1ncccc1C)C1(O)CCC(F)(F)CC1` (stereo partly drawn) [Example 23.44.126.I., (2R,3R,4S,5R,6S)-6-(((4,4-Difluoro-1-hydroxycyclohexyl)(3-methylpyridin-2-yl)methyl)thio)-4-(4-(2,3-difluoro-4-methylphenyl)-1H-1,2,3-triazol-1-yl)-2-(hydroxymethyl)-5-methoxytetrahydro-2H-pyran-3-ol], for which the IC50 on human Gal-1 (hGal-1) was found to be 0.55 µM; on human Gal-3 (hGal-3) (setting [1]), 0.05 µM.

Consider “(2S,3R,4S,5R,6R)-2-(((R)-((S)-4-Hydroxy-2,2-dimethyltetrahydro-2H-pyran-4-yl)(o-tolyl)methyl)thio)-6-(hydroxymethyl)-4-(4-(3,4,5-trifluorophenyl)-1H-1,2,3-triazol-1-yl)tetrahydro-2H-pyran-3,5-diol [Example 2.43.112RS.]”, for which the IC50 was determined as 0.4 µM on human Gal-1 (hGal-1) and 0.13 µM on human Gal-3 (hGal-3) (setting [2]).

Turning to `CCO[C@@H]1[C@@H](n2cc(-c3cc(F)c(F)c(F)c3)nn2)[C@@H](O)[C@@H](CO)O[C@H]1S[C@H](c1ncccc1C)C1(O)CCC(F)(F)CC1` [Example 2.44.126R.II., (2R,3R,4S,5R,6S)-6-(((R)-(4,4-Difluoro-1-hydroxycyclohexyl)(3-methylpyridin-2-yl)methyl)thio)-5-ethoxy-2-(hydroxymethyl)-4-(4-(3,4,5-trifluorophenyl)-1H-1,2,3-triazol-1-yl)tetrahydro-2H-pyran-3-ol], the IC50 is 0.87 µM on human Gal-1 (hGal-1) and 0.11 µM on human Gal-3 (hGal-3) (setting [3]).

As for `OC[C@H]1O[C@@H](SC(c2ncccc2C(F)(F)F)C2(O)CCCC2)[C@H](O)[C@@H](n2cc(-c3cc(F)c(F)c(F)c3)nn2)[C@H]1O` (stereo partly shown) [Example 2.38.125.], the IC50 at human Gal-1 (hGal-1) came out at 0.76 µM; on human Gal-3 (hGal-3) (setting [3]) it was 0.13 µM.

Take `Cc1noc(C2CC2)c1[C@H](S[C@@H]1O[C@H](CO)[C@H](O)[C@H](n2cc(-c3cc(F)c(F)c(F)c3)nn2)[C@H]1O)C1(O)CCCCC1` [Example 2.39.128S., (2S,3R,4S,5R,6R)-2-(((S)-(5-Cyclopropyl-3-methylisoxazol-4-yl)(1-hydroxycyclohexyl)methyl)thio)-6-(hydroxymethyl)-4-(4-(3,4,5-trifluorophenyl)-1H-1,2,3-triazol-1-yl)tetrahydro-2H-pyran-3,5-diol]: the results for the IC50 at human Gal-1 (hGal-1) and on human Gal-3 (hGal-3) (setting [2]) were 23.2 µM and 3.21 µM, respectively.

As for `CC(C)(O)[C@H](S[C@@H]1O[C@H](CO)[C@H](O)[C@H](n2cc(-c3cc(F)c(F)c(F)c3)nn2)[C@H]1O)c1ccccc1CCO` [Example 2.31.108R., (2S,3R,4S,5R,6R)-2-(((R)-2-Hydroxy-1-(2-(2-hydroxyethyl)phenyl)-2-methylpropyl)thio)-6-(hydroxymethyl)-4-(4-(3,4,5-trifluorophenyl)-1H-1,2,3-triazol-1-yl)tetrahydro-2H-pyran-3,5-diol], the IC50 on human Gal-1 (hGal-1) stood at 0.39 µM; on human Gal-3 (hGal-3) (setting [3]), 0.27 µM.

On to `Cc1ccccc1C(S[C@@H]1O[C@H](CO)[C@H](O)[C@H](n2cc(-c3cc(F)c(F)c(F)c3)nn2)[C@H]1O)C1(O)CCOCC1` (stereo partly shown) [Example 2.41.102.], for which the IC50 at human Gal-1 (hGal-1) turned out to be 1.61 µM; at human Gal-3 (hGal-3) (setting [2]), 0.09 µM.

Consider `OC[C@H]1O[C@@H](SC(c2ncccc2C(F)(F)F)C2(O)CCOCC2)[C@H](O)[C@@H](n2cc(-c3cc(F)c(F)c(F)c3)nn2)[C@H]1O` (stereo partly drawn) [Example 2.41.125., (2R,3R,4S,5R,6S)-2-(Hydroxymethyl)-6-(((4-hydroxytetrahydro-2H-pyran-4-yl)(3-(trifluoromethyl)pyridin-2-yl)methyl)thio)-4-(4-(3,4,5-trifluorophenyl)-1H-1,2,3-triazol-1-yl)tetrahydro-2H-pyran-3,5-diol], for which the results for the IC50 on human Gal-1 (hGal-1) and on human Gal-3 (hGal-3) (setting [2]) were 5.7 µM and 0.25 µM, respectively.

Turning to `CCc1cccnc1[C@H](S[C@@H]1O[C@H](CO)[C@H](O)[C@H](n2cc(-c3cc(F)c(F)c(F)c3)nn2)[C@H]1OC)C1(O)CCC(F)(F)CC1` [Example 2.44.142S.I., (2R,3R,4S,5R,6S)-6-(((S)-(4,4-Difluoro-1-hydroxycyclohexyl)(3-ethylpyridin-2-yl)methyl)thio)-2-(hydroxymethyl)-5-methoxy-4-(4-(3,4,5-trifluorophenyl)-1H-1,2,3-triazol-1-yl)tetrahydro-2H-pyran-3-ol], the IC50 at human Gal-1 (hGal-1) amounted to 8.31 µM; at human Gal-3 (hGal-3) (setting [4]), 8.11 µM.

As to `CO[C@@H]1[C@@H](n2cc(-c3cc(F)c(F)c(F)c3)nn2)[C@@H](O)[C@@H](CO)O[C@H]1S[C@@H](c1nc(C)ccc1Cl)C1(O)CCC(F)(F)CC1` [Example 2.44.148S.I., (2R,3R,4S,5R,6S)-6-(((S)-(3-Chloro-6-methylpyridin-2-yl)(4,4-difluoro-1-hydroxycyclohexyl)methyl)thio)-2-(hydroxymethyl)-5-methoxy-4-(4-(3,4,5-trifluorophenyl)-1H-1,2,3-triazol-1-yl)tetrahydro-2H-pyran-3-ol], the IC50 was determined as 31 µM at human Gal-1 (hGal-1) and 6.99 µM on human Gal-3 (hGal-3) (setting [4]).

For `OC[C@H]1O[C@@H](S[C@H](c2ncccc2C2CC2)C2(O)CCC(F)(F)CC2)[C@H](O)[C@@H](n2cc(-c3cc(F)c(F)c(F)c3)nn2)[C@H]1O` [Example 2.44.134R., (2S,3R,4S,5R,6R)-2-(((R)-(3-Cyclopropylpyridin-2-yl)(4,4-difluoro-1-hydroxycyclohexyl)methyl)thio)-6-(hydroxymethyl)-4-(4-(3,4,5-trifluorophenyl)-1H-1,2,3-triazol-1-yl)tetrahydro-2H-pyran-3,5-diol], the IC50 on human Gal-1 (hGal-1) amounted to 0.05 µM; at human Gal-3 (hGal-3) (setting [3]), 0.01 µM.

Consider `CC(C)c1ccccc1[C@H](S[C@@H]1O[C@H](CO)[C@H](O)[C@H](n2cc(-c3cc(F)c(F)c(F)c3)nn2)[C@H]1O)C(C)(C)O` [Example 2.31.105S., (2S,3R,4S,5R,6R)-2-(((S)-2-Hydroxy-1-(2-isopropylphenyl)-2-methylpropyl)thio)-6-(hydroxymethyl)-4-(4-(3,4,5-trifluorophenyl)-1H-1,2,3-triazol-1-yl)tetrahydro-2H-pyran-3,5-diol], for which the figures for the IC50 on human Gal-1 (hGal-1) and at human Gal-3 (hGal-3) (setting [3]) were 65.1 µM and 8.3 µM, respectively.

Regarding `Cc1ccccc1C(S[C@@H]1O[C@H](CO)[C@H](O)[C@H](n2cc(-c3cc(F)c(F)c(F)c3)nn2)[C@H]1O)C1(O)CC(C)C1C` (stereo partly drawn) [Example 2.37.102., (2S,3R,4S,5R,6R)-2-(((1-Hydroxy-2,3-dimethylcyclobutyl)(o-tolyl)methyl)thio)-6-(hydroxymethyl)-4-(4-(3,4,5-trifluorophenyl)-1H-1,2,3-triazol-1-yl)tetrahydro-2H-pyran-3,5-diol], the IC50 on human Gal-1 (hGal-1) turned out to be 5.36 µM; on human Gal-3 (hGal-3) (setting [2]) it was 0.56 µM.

On to `CO[C@@H]1[C@@H](n2cc(-c3ccc(F)c(F)c3)nn2)[C@@H](O)[C@@H](CO)O[C@H]1S[C@@H](c1ncccc1C)C1(O)CCC(F)(F)CC1` [Example 16.44.126S.I., (2R,3R,4S,5R,6S)-6-(((S)-(4,4-Difluoro-1-hydroxycyclohexyl)(3-methylpyridin-2-yl)methyl)thio)-4-(4-(3,4-difluorophenyl)-1H-1,2,3-triazol-1-yl)-2-(hydroxymethyl)-5-methoxytetrahydro-2H-pyran-3-ol], for which the figures for the IC50 at human Gal-1 (hGal-1) and at human Gal-3 (hGal-3) (setting [1]) were 54.2 µM and 1.87 µM, respectively.

As for `CO[C@@H]1[C@@H](n2cc(-c3cc(F)c(F)c(F)c3)nn2)[C@@H](O)[C@@H](CO)O[C@H]1S[C@H](c1ccccc1C)[C@]1(O)CCOC(C)(C)C1` [Example 2.43.102RS.I., (2R,3R,4S,5R,6S)-6-(((R)-((S)-4-Hydroxy-2,2-dimethyltetrahydro-2H-pyran-4-yl)(o-tolyl)methyl)thio)-2-(hydroxymethyl)-5-methoxy-4-(4-(3,4,5-trifluorophenyl)-1H-1,2,3-triazol-1-yl)tetrahydro-2H-pyran-3-ol], the IC50 on human Gal-1 (hGal-1) was 1.9 µM; on human Gal-3 (hGal-3) (Table 9, 2-OMe-Gal inhibitors, read-out: IC50 (Gal-3 inhibition)) it was 0.06 µM.

For `CC(C)(O)[C@H](S[C@@H]1O[C@H](CO)[C@H](O)[C@H](n2cc(-c3cc(F)c(F)c(F)c3)nn2)[C@H]1O)c1cccc2ccccc12` [Example 2.31.115R., (2S,3R,4S,5R,6R)-2-(((R)-2-Hydroxy-2-methyl-1-(naphthalen-1-yl)propyl)thio)-6-(hydroxymethyl)-4-(4-(3,4,5-trifluorophenyl)-1H-1,2,3-triazol-1-yl)tetrahydro-2H-pyran-3,5-diol], the IC50 at human Gal-1 (hGal-1) is 0.58 µM; at human Gal-3 (hGal-3) (setting [3]), 0.17 µM.

For the compound `OC[C@H]1O[C@@H](SC(c2ccccc2C(F)(F)F)C2(O)CCOCC2)[C@H](O)[C@@H](n2cc(-c3cc(F)c(F)c(F)c3)nn2)[C@H]1O` (stereo partly drawn) [Example 2.41.112., (2R,3R,4S,5R,6S)-2-(Hydroxymethyl)-6-(((4-hydroxytetrahydro-2H-pyran-4-yl)(2-(trifluoromethyl)phenyl)methyl)thio)-4-(4-(3,4,5-trifluorophenyl)-1H-1,2,3-triazol-1-yl)tetrahydro-2H-pyran-3,5-diol], the results for the IC50 on human Gal-1 (hGal-1) and at human Gal-3 (hGal-3) (setting [2]) were 0.9 µM and 0.11 µM, respectively.
